Measurements published in patent US20090291088A1, “THERAPEUTIC COMBINATIONS OF ANTI-IGF-1R ANTIBODIES AND OTHER COMPOUNDS” (Biogen Idec MA Inc., priority 2008, published 2009).

Assays:
[1] = test system: IGF-1R-Fc; assay: Surface plasmon resonance analysis of the IGF-1R-Fc mutant library (46 mutants); format: binding, human; conditions: for C06 binding: M13-C06 Fab; for C06 binding / C03 binding / G11 binding / P1E2 binding / αIR3 binding: KD relative to WT hIGF-1R-Fc; for C03 binding: M14-C03 Fab; for G11 binding: M14-G11 Fab; for P1E2 binding: P1E2 antibody; for loss in affinity for M14-G11 Fab based on the measured KD: mutant versus wild-type; for αIR3 binding: αIR3 antibody
Method: Surface plasmon resonance (SPR) experiments were performed on a Biacore 3000 instrument set to 25° C. Both mIGF-1R-Fc and hIGF-1R-Fc bind with high apparent affinity to research grade CM5 sensorchip surfaces containing immobilized M13-C06, M14-C03, and M14-G11. The antibody sensorchip surfaces were prepared by injecting each antibody (diluted 100 μg/mL in 10 mM Acetate, pH 4.0) over EDC/NHS-activated sensorchip surfaces according to the standard protocol of the manufacturer. The ability of mIGF-1R-Fc to bind the antibody surfaces was the result of high apparent avidity of the protein. Both hIGF-1R-Fc and mIGF-1R-Fc proteins oligomerize due to the incorporation of two separate homodimeric regions (IGF-1R and IgG1-Fc). To distinguish between actual high affinity antibody binding to hIGF-1R-Fc and low affinity antibody binding to mIGF-1R-Fc, the receptor-Fc fusions were captured on the M13-C06 and M14-G11 sensorchip surfaces followed by an additional injection of antibody (αIR3 and P1E2) or antibody Fab (M13-C06, M14-C03, and M14-G11). […] After, completion of the receptor-Fc loading step, flow rates were elevated to 5 μl/min. Solutions containing M13-C06 Fab or αIR3 antibody at 10 nM, 3 nM, or 1 nM or M14-C03 Fab, M14-G11 Fab, or P1E2 antibody at 30 nM, 10 nM, or 3 nM were injected (50 μL) subsequent to the loading of each receptor-Fc construct. Dissociation was measured for 7 minutes after the antibody injections were complete. Finally, the flow rate was elevated to 30 μL/min and the chip surfaces were regenerated by 2×10 μL injections of 0.1 M glycine, pH 2.
M13-C06, M14-C03, M14-G11, P1E2 and αIR3 were assayed for their ability to interact with each of the mutant IGF-1R-Fc fusion constructs using surface plasmon resonance (Biacore). To remove the uncertain concentrations of the IGF-1R-Fc fusion constructs as a variable in the assay, each mutant construct was captured on a research grade CM5 chip containing ˜10,000 RU immobilized […], M14-C03, and M14-G11 antibody. To enhance our ability to visualize attenuations in antibody binding to the captured mutant IGF-1R constructs, we utilized enzymatically derived M13-C06, M14-C03, and M14-G11 antigen binding fragments (Fabs).

[2] = test system: IGF-1R; assay: Biacore analysis of the IGF-1R-Fc mutant library: M13-C06 Fab binding to receptor-Fc captured on M13-C06 chip; design: species or system human; conditions: M13-C06 Fab binding to mutant hIGF-1R-Fc captured on M13-C06 chip
Text: Both mIGF-1R-Fc and hIGF-1R-Fc bind with high apparent affinity to the M13-C06, M14-C03, and M14-G11 sensorchip surfaces described above due to their highly multivalent nature induced by the incorporation of two separate homodimeric regions (IGF-1R and IgG1-Fc). To distinguish between the actual high affinity binding hIGF-1R-Fc to M13-C06 and the low affinity binding of mIGF-1R-Fc to M13-C06, the receptor-Fc fusions were captured on the M13-C06 sensorchip surface followed by an additional soluble M13-C06 Fab binding event. […] After, completion of the receptor-Fc loading step, flow rates were elevated to 5 μl/min. 10 nM, […], and 1 nM M13-C06 Fab concentrations were injected (50 μL) subsequent to the loading of each receptor-Fc construct. At the end of each sensorgram, the flow rate was elevated to 30 μl/min and the chip surface was regenerated by 2×10 μL injections of 0.1 M glycine, pH 2.

[3] = test system: NSCLC, pancreatic, and colon cancer cell lines; assay: Cell viability, M13-C06 and PD0325901 alone or combined; format: cell-based; conditions: PD0325901 single agent
Method: Cells were plated at 5000 cells/well in 96-well tissue culture plates in RPMI-1640 containing 10% fetal bovine serum, then treated with M13-C06 and PD0325901 as single agents or in combination at 1:3 serial dilutions with a starting concentration of 200 nM for M13-C06 and 10 microM for PD0325901. Cell viability was determined three or five days later by measuring ATP levels with CELL TITER GLO™ reagent from Promega.

Row | Compound | Biacore Relative RUmax [2] | loss in affinity for M14-G11 Fab based on the measured KD [1] | C06 binding [1] | C03 binding [1] | G11 binding [1] | P1E2 binding [1] | αIR3 binding [1] | cell growth ([3]; 7 NSCLC cell lines) | cell growth ([3]; BxPC3 and Panc-1) | cell growth ([3]; H460 and H1650) | cell growth ([3]; MiaPaCa2 and Su86.86)
1 | SD019: hIGF-1R-Fc mutant E739W L741F (Table 20), A739W_I741F (Table 17) | 1.9 | – | NE (No effect (NE): measured KD within 2.5-fold of WT hIGF-1R-Fc) | NE (No effect (NE): measured KD within 2.5-fold of WT hIGF-1R-Fc) | NE (No effect (NE): measured KD within 2.5-fold of WT hIGF-1R-Fc) | – | – | – | – | – | –
2 | SD016: hIGF-1R-Fc mutant D531Q_V532N | 2.0 | – | NE (No effect (NE): measured KD within 2.5-fold of WT hIGF-1R-Fc) | NE (No effect (NE): measured KD within 2.5-fold of WT hIGF-1R-Fc) | NE (No effect (NE): measured KD within 2.5-fold of WT hIGF-1R-Fc) | – | – | – | – | – | –
3 | SD003: hIGF-1R-Fc mutant T188F | 1.0 | – | NE (No effect (NE): measured KD within 2.5-fold of WT hIGF-1R-Fc) | – | NE (No effect (NE): measured KD within 2.5-fold of WT hIGF-1R-Fc) | – | – | – | – | – | –
4 | SD011: hIGF-1R-Fc mutant G285S_S286T | 1.8 | – | NE (No effect (NE): measured KD within 2.5-fold of WT hIGF-1R-Fc) | NE (No effect (NE): measured KD within 2.5-fold of WT hIGF-1R-Fc) | NE (No effect (NE): measured KD within 2.5-fold of WT hIGF-1R-Fc) | NE (No effect (NE): measured KD within 2.5-fold of WT hIGF-1R-Fc) | NE (No effect (NE): measured KD within 2.5-fold of WT hIGF-1R-Fc) | – | – | – | –
5 | O=C(NOC[C@H](O)CO)c1ccc(F)c(F)c1Nc1ccc(I)cc1F [PD0325901, (R)—N-(2,3-dihydroxypropoxy)-3,4-difluoro-2-(2-fluoro-4-iodophenylamino)benzamide, reference compound] | – | – | – | – | – | – | – | five of them were sensitive to PD0325901 inhibition | intermediate response | showed less response | sensitive to PD0325901 as a single agent
6 | SD001: hIGF-1R-Fc mutant Y28A | 0.6 | – | NE (No effect (NE): measured KD within 2.5-fold of WT hIGF-1R-Fc) | – | NE (No effect (NE): measured KD within 2.5-fold of WT hIGF-1R-Fc) | – | – | – | – | – | –
7 | SD017: hIGF-1R-Fc mutant I650S | 2.0 | – | NE (No effect (NE): measured KD within 2.5-fold of WT hIGF-1R-Fc) | NE (No effect (NE): measured KD within 2.5-fold of WT hIGF-1R-Fc) | NE (No effect (NE): measured KD within 2.5-fold of WT hIGF-1R-Fc) | – | – | – | – | – | –

Further lines, with some results ahead:

Row | Biacore Relative RUmax [2] | loss in affinity for M14-G11 Fab based on the measured KD [1] | Compound | C06 binding [1] | C03 binding [1] | G11 binding [1] | P1E2 binding [1] | αIR3 binding [1] | cell growth ([3]; 7 NSCLC cell lines) | cell growth ([3]; BxPC3 and Panc-1) | cell growth ([3]; H460 and H1650) | cell growth ([3]; MiaPaCa2 and Su86.86)
8 | 1.7 | – | SD018: hIGF-1R-Fc mutant E665A | NE (No effect (NE): measured KD within 2.5-fold of WT hIGF-1R-Fc) | NE (No effect (NE): measured KD within 2.5-fold of WT hIGF-1R-Fc) | NE (No effect (NE): measured KD within 2.5-fold of WT hIGF-1R-Fc) | – | – | – | – | – | –
9 | 0.9 | – | SD005: hIGF-1R-Fc mutant A217T | NE (No effect (NE): measured KD within 2.5-fold of WT hIGF-1R-Fc) | NE (No effect (NE): measured KD within 2.5-fold of WT hIGF-1R-Fc) | NE (No effect (NE): measured KD within 2.5-fold of WT hIGF-1R-Fc) | – | – | – | – | – | –
10 | 1.5 | approximately 3 fold | SD008: hIGF-1R-Fc mutant S257F (Table 20), S258F (Table 17) | NE (No effect (NE): measured KD within 2.5-fold of WT hIGF-1R-Fc) | NE (No effect (NE): measured KD within 2.5-fold of WT hIGF-1R-Fc) | W (Weak (W): measured KD between 2.5-10-fold higher than WT) | W (Weak (W): measured KD between 2.5-10-fold higher than WT) | NE (No effect (NE): measured KD within 2.5-fold of WT hIGF-1R-Fc) | – | – | – | –
11 | 1.2 | – | SD002: hIGF-1R-Fc mutant M156A | NE (No effect (NE): measured KD within 2.5-fold of WT hIGF-1R-Fc) | – | NE (No effect (NE): measured KD within 2.5-fold of WT hIGF-1R-Fc) | – | – | – | – | – | –
12 | 1.7 | – | SD006: hIGF-1R-Fc mutant A227K | NE (No effect (NE): measured KD within 2.5-fold of WT hIGF-1R-Fc) | NE (No effect (NE): measured KD within 2.5-fold of WT hIGF-1R-Fc) | NE (No effect (NE): measured KD within 2.5-fold of WT hIGF-1R-Fc) | NE (No effect (NE): measured KD within 2.5-fold of WT hIGF-1R-Fc) | NE (No effect (NE): measured KD within 2.5-fold of WT hIGF-1R-Fc) | – | – | – | –
13 | 0.3 | approximately 3 fold | SD012: hIGF-1R-Fc mutant E303G | NE (No effect (NE): measured KD within 2.5-fold of WT hIGF-1R-Fc) | NE (No effect (NE): measured KD within 2.5-fold of WT hIGF-1R-Fc) | W (Weak (W): measured KD between 2.5-10-fold higher than WT) | W (Weak (W): measured KD between 2.5-10-fold higher than WT) | W (Weak (W): measured KD between 2.5-10-fold higher than WT) | – | – | – | –
14 | 0.8 | – | SD010: hIGF-1R-Fc mutant G271D | NE (No effect (NE): measured KD within 2.5-fold of WT hIGF-1R-Fc) | NE (No effect (NE): measured KD within 2.5-fold of WT hIGF-1R-Fc) | NE (No effect (NE): measured KD within 2.5-fold of WT hIGF-1R-Fc) | NE (No effect (NE): measured KD within 2.5-fold of WT hIGF-1R-Fc) | NE (No effect (NE): measured KD within 2.5-fold of WT hIGF-1R-Fc) | – | – | – | –
15 | 0.6 | – | SD014: hIGF-1R-Fc mutant K412A_A413Q | NE (No effect (NE): measured KD within 2.5-fold of WT hIGF-1R-Fc) | NE (No effect (NE): measured KD within 2.5-fold of WT hIGF-1R-Fc) | NE (No effect (NE): measured KD within 2.5-fold of WT hIGF-1R-Fc) | NE (No effect (NE): measured KD within 2.5-fold of WT hIGF-1R-Fc) | NE (No effect (NE): measured KD within 2.5-fold of WT hIGF-1R-Fc) | – | – | – | –
16 | 0.7 | – | SD013: hIGF-1R-Fc mutant D405K | NE (No effect (NE): measured KD within 2.5-fold of WT hIGF-1R-Fc) | NE (No effect (NE): measured KD within 2.5-fold of WT hIGF-1R-Fc) | NE (No effect (NE): measured KD within 2.5-fold of WT hIGF-1R-Fc) | – | – | – | – | – | –
17 | 0.8 | – | SD004: hIGF-1R-Fc mutant S210H_A211Q | NE (No effect (NE): measured KD within 2.5-fold of WT hIGF-1R-Fc) | NE (No effect (NE): measured KD within 2.5-fold of WT hIGF-1R-Fc) | NE (No effect (NE): measured KD within 2.5-fold of WT hIGF-1R-Fc) | – | – | – | – | – | –
